Measured values: PubChem BioAssay (NCI)
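Five compound concentrations were applied to cells in 96-well plates for 48 hours; endpoints were derived by simple linear interpolation of the resulting dose-response curve. Here, GI50 denotes the concentration required for 50% inhibition of growth. At the TGI there is no net growth.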

Tests used:
Experiment in all cases: inhibition of tumour cell growth, NCI panel, 48 h
M14 melanoma = system: M14 melanoma
HL-60(TB) leukemia = system: HL-60(TB) leukemia
OVCAR-4 ovarian = system: OVCAR-4 ovarian
NCI-H23 lung = system: NCI-H23 lung
LOX IMVI melanoma = system: LOX IMVI melanoma
U251 CNS = system: U251 CNS
CAKI-1 renal = system: CAKI-1 renal
UACC-257 melanoma = system: UACC-257 melanoma
DU-145 prostate = system: DU-145 prostate
HS 578T breast = system: HS 578T breast

SMILES	TGI (M14 melanoma) [µM]	TGI (HL-60(TB) leukemia) [µM]	TGI (OVCAR-4 ovarian) [µM]	TGI (NCI-H23 lung) [µM]	TGI (LOX IMVI melanoma) [µM]	TGI (U251 CNS) [µM]	TGI (CAKI-1 renal) [µM]	TGI (UACC-257 melanoma) [µM]	TGI (DU-145 prostate) [µM]	TGI (HS 578T breast) [µM]	GI50 (M14 melanoma) [µM]	GI50 (DU-145 prostate) [µM]	GI50 (OVCAR-4 ovarian) [µM]	GI50 (NCI-H23 lung) [µM]	GI50 (LOX IMVI melanoma) [µM]	GI50 (U251 CNS) [µM]	GI50 (UACC-257 melanoma) [µM]	GI50 (HS 578T breast) [µM]	GI50 (CAKI-1 renal) [µM]
COc1cc([C@@H]2c3cc4c(cc3[C@@H](NC(=O)c3ccc(N)cc3)C3COC(=O)[C@@H]32)OCO4)cc(OC)c1O (some centres undefined)	> 100	4.35	> 100	4.97	18.7	3.5	89.4	> 100	–	–	–	–	–	–	–	–	–	–	–
O=[N+]([O-])c1cccc([N+](=O)[O-])c1S(=O)(=O)c1ccccc1	6.59	7.48	–	50.7	3.7	23	3.76	28.8	20	43.9	–	–	–	–	–	–	–	–	–
CC#C[C@@]1(O)CCCC[C@@H]1O	> 100	> 100	> 100	> 100	> 100	> 100	–	> 100	–	–	–	–	–	–	–	–	–	–	–
COc1ccc(SC2c3cc(OC)c(OC)cc3Oc3nc(N)c(C#N)c(N)c32)cc1 (centres undefined)	2.65	–	2.73	3.01	1.86	2.18	–	3.32	3.11	–	1.21	1.73	1.33	1.45	0.585	0.954	1.87	–	–
c1ccc2c(CNCCCCCCNCc3cccc4ccccc34)cccc2c1	3.25	3.45	28.9	30.1	3.5	22.8	20.7	3.17	–	–	–	–	–	–	–	–	–	–	–
COc1ccc2cccc(C(=O)c3ccc(C)c4c3CCC4)c2c1	57.6	44.7	> 100	77	38.8	> 100	80.8	> 100	–	–	–	–	–	–	–	–	–	–	–
Cc1cnc[nH]c1=O	> 100	> 100	> 100	> 100	> 100	> 100	> 100	> 100	–	–	–	–	–	–	–	–	–	–	–
O=C(CC(=O)N1N=C(c2ccccc2)C(N=Nc2ccc(C(=O)O)cc2)C1=O)Nc1ccc(F)cc1 (centres undefined)	> 100	42.9	> 100	90.2	> 100	–	> 100	> 100	–	–	–	–	–	–	–	–	–	–	–
CC(C)[C@@H]1C=C(c2ccccc2)c2ccccc2C1C(C#N)(C#N)C(C)C (some centres undefined)	> 100	> 100	> 100	> 100	> 100	> 100	–	> 100	–	–	–	–	–	–	–	–	–	–	–
Cn1c2ccccc2c(=Nc2ccccc2)c2c3ccccc3[nH]c21	3.02	–	22	20.4	–	2.45	2.05	16	4.36	4.58	1.65	1.74	5.41	2.73	–	1.15	3.02	1.46	0.78
NCCCCCS(=O)(=O)O	> 100	> 100	> 100	> 100	> 100	> 100	–	> 100	–	–	–	–	–	–	–	–	–	–	–
